Experimental data published in the supplement of paper PMC8671470.

Columns and labels:
Conditions in all cases: 72 h
[1] = system: myeloid leukemia patient primary cells Pat.8; test: cell viability (% survival relative to DMSO control); higher = less cytotoxic
Procedure, shortened: (§1)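 Thawed, Ficoll-purified mononuclear cells from AML or CML patients in RPMI 1640 with 10% FBS were seeded at 10,000 cells/well on 384-well plates pre-printed with 70 compounds at five tenfold concentrations, 1–10,000 nM, in duplicate, for 72 h. Viability was read by CellTiter-Glo and normalised to DMSO and 10 μM proteasome-inhibitor wells. Where given, area under the curve came from four-parameter log-logistic fits (drc, PharmacoGx R packages).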

[2] = system: myeloid leukemia patient primary cells Pat.4; test: as above
Procedure, shortened: as §1

[3] = system: myeloid leukemia patient primary cells Pat.13; test: as above
Procedure, shortened: as §1

[4] = system: myeloid leukemia patient primary cells Pat.9; test: as above
Procedure, shortened: as §1

[5] = system: myeloid leukemia patient primary cells Pat.6; test: as above
Procedure, shortened: as §1

[6] = system: myeloid leukemia patient primary cells Pat.3; test: as above
Procedure, shortened: as §1

[7] = system: myeloid leukemia patient primary cells Pat.2; test: as above
Procedure, shortened: as §1

[8] = system: myeloid leukemia patient primary cells Pat.11; test: as above
Procedure, shortened: as §1

[9] = system: myeloid leukemia patient primary cells Pat.5; test: as above
Procedure, shortened: as §1

[10] = system: myeloid leukemia patient primary cells Pat.10; test: as above
Procedure, shortened: as §1

[11] = system: myeloid leukemia patient primary cells Pat.1; test: as above
Procedure, shortened: as §1

[12] = system: myeloid leukemia patient primary cells Pat.7; test: as above
Procedure, shortened: as §1

[13] = system: myeloid leukemia patient primary cells Pat.12; test: as above
Procedure, shortened: as §1

[14] = system: myeloid leukemia patient primary cells Pat.14; test: as above
Procedure, shortened: as §1

[15] = system: myeloid leukemia patient primary cells Pat.15; test: as above
Procedure, shortened: as §1

[16] = system: SHI-1
Procedure, shortened: (§2)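 Each of fifteen myeloid leukaemia cell lines was seeded in RPMI 1640 at a density titrated to its linear growth range. The cells were incubated for 72 h at 37 °C and 5% CO2 with compounds at five tenfold doses from 1 to 10,000 nM, in duplicate. After ATP luminescence was normalised to vehicle and to a positive control at 10 µM, four-parameter log-logistic curves were fitted. These curves gave the IC50.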

[17] = system: BV-173
Procedure, shortened: as §2

[18] = system: LAMA-84
Procedure, shortened: as §2

[19] = system: THP-1
Procedure, shortened: as §2

[20] = system: HL-60
Procedure, shortened: as §2

[21] = system: Mono-Mac-6
Procedure, shortened: as §2

[22] = system: KU-812
Procedure, shortened: as §2

[23] = system: NOMO-1
Procedure, shortened: as §2

[24] = system: HEL
Procedure, shortened: as §2

[25] = system: ML-2
Procedure, shortened: as §2

[26] = system: MOLM-13
Procedure, shortened: as §2

[27] = system: KG-1
Procedure, shortened: as §2

[28] = system: KCL-22
Procedure, shortened: as §2

[29] = system: K-562
Procedure, shortened: as §2

[30] = system: myeloid leukemia patient primary cells Pat.4; test: area under dose-response curve (viability, 1 nM-10 uM) (fraction (0-1)); higher = more sensitive
Procedure, shortened: as §1

C=C(C)[C@H]1Cc2c(ccc3c2O[C@@H]2COc4cc(OC)c(OC)cc4[C@@H]2C3=O)O1 [Rotenone]
cell viability ([1]; 1 nM): 70.8% | cell viability ([1]; 10 nM): 79.3% | cell viability ([1]; 100 nM): 55.6% | cell viability ([1]; 1000 nM): 36.8% | cell viability ([1]; 10000 nM): 3.96% | cell viability ([2]; 1 nM): 79.9% | cell viability ([2]; 10 nM): 89.3% | cell viability ([2]; 100 nM): 88.5% | cell viability ([2]; 1000 nM): 62.3% | cell viability ([2]; 10000 nM): 11.7% | cell viability ([3]; 1 nM): 62.5% | cell viability ([3]; 10 nM): 80.5% | cell viability ([3]; 100 nM): 57.6% | cell viability ([3]; 1000 nM): 17.2% | cell viability ([3]; 10000 nM): 11.9% | cell viability ([4]; 1 nM): 1.24% | cell viability ([4]; 10 nM): 50.1% | cell viability ([4]; 100 nM): 10.8% | cell viability ([4]; 1000 nM): 1.6% | cell viability ([4]; 10000 nM): < 0% | cell viability ([5]; 1 nM): 44.2% | cell viability ([5]; 10 nM): 75.4% | cell viability ([5]; 100 nM): 47.2% | cell viability ([5]; 1000 nM): 37.3% | cell viability ([5]; 10000 nM): 23.7% | cell viability ([6]; 1 nM): 48.6% | cell viability ([6]; 10 nM): 57.4% | cell viability ([6]; 100 nM): 35.7% | cell viability ([6]; 1000 nM): 25.3% | cell viability ([6]; 10000 nM): 18% | cell viability ([7]; 1 nM): 62.7% | cell viability ([7]; 10 nM): 86.5% | cell viability ([7]; 100 nM): 68.7% | cell viability ([7]; 1000 nM): 61.5% | cell viability ([7]; 10000 nM): 57.5% | cell viability ([8]; 1 nM): 88.5% | cell viability ([8]; 10 nM): 93.3% | cell viability ([8]; 100 nM): 94.2% | cell viability ([8]; 1000 nM): 85.5% | cell viability ([8]; 10000 nM): 73.9% | cell viability ([9]; 1 nM): 5.46% | cell viability ([9]; 10 nM): 0.265% | cell viability ([9]; 100 nM): 0.912% | cell viability ([9]; 1000 nM): 0.265% | cell viability ([9]; 10000 nM): 1.18% | cell viability ([10]; 1 nM): 38.7% | cell viability ([10]; 10 nM): 75.5% | cell viability ([10]; 100 nM): 47.7% | cell viability ([10]; 1000 nM): 30% | cell viability ([10]; 10000 nM): 20.9% | cell viability ([11]; 1 nM): 75.9% | cell viability ([11]; 10 nM): 81.3% | cell viability ([11]; 100 nM): 72.8% | cell viability ([11]; 1000 nM): 68.4% | cell viability ([11]; 10000 nM): 34.8% | cell viability ([12]; 1 nM): 5.63% | cell viability ([12]; 10 nM): 79.4% | cell viability ([12]; 100 nM): 54.6% | cell viability ([12]; 1000 nM): 36.3% | cell viability ([12]; 10000 nM): 1.21% | cell viability ([13]; 1 nM): 94.8% | cell viability ([13]; 10 nM): 89.2% | cell viability ([13]; 100 nM): 66.1% | cell viability ([13]; 1000 nM): 64.9% | cell viability ([13]; 10000 nM): 49.5% | cell viability ([14]; 1 nM): 30.2% | cell viability ([14]; 10 nM): 71% | cell viability ([14]; 100 nM): 50% | cell viability ([14]; 1000 nM): 30.8% | cell viability ([14]; 10000 nM): 10.7% | cell viability ([15]; 1 nM): 44.9% | cell viability ([15]; 10 nM): 66% | cell viability ([15]; 100 nM): 43.9% | cell viability ([15]; 1000 nM): 24.3% | cell viability ([15]; 10000 nM): 37.6% | IC50 (cell viability) [16]: 179 nM | IC50 (cell viability) [17]: 80 nM | IC50 (cell viability) [18]: 74.4 nM | IC50 (cell viability) [19]: 268 nM | IC50 (cell viability) [20]: 269 nM | IC50 (cell viability) [21]: 225 nM | IC50 (cell viability) [22]: 23.2 nM | IC50 (cell viability) [23]: 644 nM | IC50 (cell viability) [24]: 168 nM | IC50 (cell viability) [25]: 322 nM | IC50 (cell viability) [26]: 176 nM | IC50 (cell viability) [27]: 68.4 nM | IC50 (cell viability) [28]: 206 nM | IC50 (cell viability) [29]: 40.7 nM | area under dose-response curve [30]: 0.187
